Assay results reported in US20250388542A1, “ANALOGUES OF PENTAMIDINE AND USES THEREFOR” (Auransa Inc., priority 2018, published 2025).

How the values were obtained:
Human microsomal CL rate = format: in vitro ADME; conditions: human microsomes
HEP3B2.7-1 = experiment: CellTiter-Glo cell viability, liver cell lines, 8 days; format: cell-based; conditions: HEP3B2.7-1, Table 5, similar experiment
Procedure: (§1) The objective of this study is to investigate the effect of Compound 1 on cell viability of various types of liver cancer. Ten (10) different liver cancer cell lines were employed in the study. Each liver cell line shown in Table 4 was treated with Compound 1, pentamidine, as reference control, a standard of care (cisplatin) and culture medium contains 0.2% [v/v] DMSO vehicle control and IC50 values were obtained as described above. The raw data values from the CellTiter-Glo™ cell viability assay expressed in relative luminescence units were normalized to the vehicle for each individual plate, and any reduction in luminescence indicated a decrease in viability (%). The data was analyzed in GraphPad PRISM using a non-linear sigmoidal plot with variable slope (asymmetric four-point linear regression), and an IC50 value for each compound was generated. The experiment tested pentamidine, compound 1, and standard-of-care control Cisplatin in full growth media for 8 days. Cells were initially treated with the test compounds on Day 0, and the cells were then replenished with fresh compound dilutions on Day 3. Pentamidine, Compound 1, and cisplatin were tested at 9 concentration points; 100, 33.33, 11.11, 3.70, 1.23, 0.41, 0.14, 0.05, and 0.02 μM (final DMSO concentration=0.5%). In particular, the IC50 values of pentamidine and Compound 1 were 0.8 and 0.6 μM in Hep3B-luc, respectively.

SK-HEP-1 = experiment: as above; format: cell-based; conditions: Homo sapiens, SK-HEP1, SK-HEP-1, Table 5, similar experiment
Procedure: as §1

NCI-H209 = experiment: CellTiter-Glo luminescent cell viability assay; format: cell-based; conditions: Homo sapiens
Procedure: (§2) The objective of this study is to investigate potential cell killing effect of Compounds 1-15 on 3 cancer cell lines. 50% inhibition concentration (IC50) was determined for these compounds in various cancer cell lines using CellTiter-Glo™ luminescent cell viability assay at different compound concentrations. Each cell line (e.g., NCI-H209; NCI-H69; and SW1271) was treated with Compounds 1-15 and culture medium contains 0.2% [v/v] DMSO vehicle control. All the cells were cultured in the media supplemented with 10-20% fetal bovine serum at 37° C., 5% CO2 and 95% humidity.

NCI-H69 = experiment: CellTiter-Glo luminescent cell viability assay; format: cell-based; conditions: Homo sapiens
Procedure: as §2

SW1271 = experiment: CellTiter-Glo luminescent cell viability assay; format: cell-based
Procedure: as §2

[1] = Pharmacokinetics in liver and tissues after oral administration; format: in vivo, mice; conditions: p.o.
Procedure: Compound 1 (20 mg per kg), Compound 5 (10 mg per kg), and pentamidine (20 mg per kg) were tested for their PK. Tissue samples were collected as described above in Example 23. Briefly, blood samples (approximately […]) were collected under light isoflurane anesthesia from retro orbital plexus of mice at 0.5, 1, 3, 8, 48 and 72 hr. Plasma samples were separated by centrifugation at 2,000×g for 6 minutes and stored below −70±10° C. until bioanalysis. Immediately after collection of blood, animals were euthanized using excess CO2 asphyxiation and samples were collected from set of five mice at each time point. Collected tissue samples were immediately dipped and rinsed three times in ice cold PBS (for 5-10 seconds/rinse using ˜5-10 mL fresh PBS in disposable petri dish for each rinse) and dried on blotting paper. Tissue samples were homogenized using ice-cold phosphate buffer saline (pH7.4) and homogenates were stored below −70±10° C. until analysis. Total homogenate volume was three times the tissue weight except for liver samples, total homogenate volume was ten times the liver weight. Bioanalysis process was determined by fit-for-purpose LC-MS/MS method.
Calibration standards were prepared by spiking the test compound into blank plasma. 10 μL of working calibration standard was spiked into 190 μL of blank Mice Plasma or tissue homogenate to generate linearly spiked calibration standards. Calibrator concentrations were 5,000, 2,000, 1,000, 200, 100, 20, 10, 2 and 1 ng/mL. Calibration standard samples were processed along with the test samples. Twenty-five μL aliquots of plasma or tissue homogenate test samples were treated with 100 μL of acetonitrile containing internal standard (500 ng/mL Glipizide). Samples were vortexed for 5 minutes. Samples were centrifuged for 10 minutes at a speed of 4000 rpm at 4° C. Following centrifugation, 100 μL of clear supernatant was transferred in 96-well plates of and analyzed using LC-MS/MS. Chromatographic separation was achieved using a Kintex Polar column (C18, 100×4.6 mm, 5μ) and column oven temperature 45° C. For compound 1 diHCl the mobile phase A was water with 0.1% formic acid in Acetonitrile; mobile phase B was 10 mM ammonium formate. However, the mobile phase for pentamidine and Compound 5 mobile phase A was water with 0.1% formic acid and mobile phase B acetonitrile with 0.1% formic acid.
The gradient program for Compound 1 was as follows: 5% B (1-2.40 min), 90% B (2.60-3.00 min), and the initial for B was 90%. The retention rate was 1.47 per minute and the internal standard Glipizide was 1 per 9 minutes. The column was maintained at 45° C. For pentamidine and Compound 5, analysis was performed using 233 MassSpec by AB Sciex API5000 with Turbo Ion Spray interface operating in a positive ionization mode. Quantification was performed using multiple reaction monitoring (MRM) method with the transitions of (m/z) 328 à (m/z) 311 for Compound 5 and (m/z) 548 à (m/z) 366 for Edoxaban (internal standard). While, for pentamidine (m/z) 341 à (m/z) 324 and (m/z) 548 à (m/z) 366 for Verapmil (internal standard).
The gradient program for Compound 5 was as follows: 10% B (0-0.2 min), 95% B (1.5-2 min), the initial for B was 10% and it stopped at 2.6 mins. The flow rate was 0.5 mL/min. The gradient program for pentamidine was as follows: 10% B (0-0.2 min), 95% B (1.4-2 min), the initial for B was 10% and it stopped at 2.5 mins. The flow rate was 0.5 mL/min.

[2] = tested on: A549-NLR cells with anti-CD3 stimulated PBMC; experiment: Primary human T cell killing assay; format: cell-based
Procedure: In this study, A549-NLR cells were cultured alone or with PBMC's isolated from blood of three healthy donors in the presence of anti-CD3 stimulation. […] A549 growth was quantified by enumerating NucLight+ cells and A549 apoptosis by Caspase-3/7+ expression (colocalised to NucLight signal) every 2 hours for 96 hours.
All test conditions were applied to A549-NLR cells in the presence of stimulated PBMC. The number of A549 cells was tracked by IncuCyte live cell imaging over 96 hrs. The number of A549 cells at each time-point was counted and expressed as a percentage of the starting number (on a per well basis). At each time-point, the frequency of target cell apoptosis was quantified.

microsomal CLint (Human microsomal CL rate) [µL/min/mg]	IC50 (NCI-H69) [nM]	Compound	other results
27.7	–	N=C(N)c1ccc(OCCCCCOc2ccnc(C(=N)N)c2)cc1 [Compound 19, 4-{[5-(4-carbamimidoylphenoxy)pentyl]oxy}pyridine-2-carboximidamide]	IC50 (HEP3B2.7-1): 222 nM; IC50 (SK-HEP-1): 840 nM
9.5	–	N=C(N)c1ccc(CC[C@@H]2CCC[C@H](CCc3ccc(C(=N)N)nc3)C2)cc1 [Compound 18, 5-{2-[(1R,3S)-3-[2-(4-carbamimidoylphenyl)ethyl]cyclohexyl]ethyl}pyridine-2-carboximidamide]	–
9.8	3480	N=C(N)c1ccc(OCCCCCOc2ccc(C(=N)N)cn2)cc1 [Compound 2, 6-((5-(4-carbamimidoylphenoxy)pentyl)oxy)nicotinimidamide]	IC50 (NCI-H209): 9.38 µM; IC50 (SW1271): 1600 nM
11	2110	N=C(N)c1ccc(O[C@H]2CC[C@H](Oc3ccc(C(=N)N)nc3)CC2)cc1 [Compound 13, 5-(((1r,4r)-4-(4-carbamimidoylphenoxy)cyclohexyl)oxy)picolinimidamide]	–
4.6	–	N=C(N)c1ccc(OCCCCOc2ccc(C(=N)N)nc2)cn1 [Compound 16, 5,5′-(butane-1,4-diylbis(oxy))dipicolinimidamide]	–
–	2910	N=C(N)c1ccc(OCCCCCOc2cnc(C(=N)N)nc2)cc1 [Compound 3, 5-((5-(4-carbamimidoylphenoxy)pentyl)oxy)pyrimidine-2-carboximidamide]	IC50 (NCI-H209): 3.47 µM; IC50 (SW1271): 3470 nM
13	5280	N=C(N)c1cncc(CCCCCCCc2cncc(C(=N)N)c2)c1 [Compound 9, 5,5′-(heptane-1,7-diyl)dinicotinimidamide]	–
11	687	N=C(N)c1cccc(CCCCCCCc2cccc(C(=N)N)n2)n1 [Compound 8, 6,6′-(heptane-1,7-diyl)dipicolinimidamide]	–
8.1	–	N=C(N)c1ccc(OCCCOc2ccc(C(=N)N)nc2)cc1 [Compound 17, 5-(3-(4-carbamimidoylphenoxy)propoxy)picolinimidamide]	–
4	–	N=C(N)c1ccc(OCCCCCOc2ccc(C(=N)N)nc2)cn1 [Compound 20, 5-({5-[(6-carbamimidoylpyridin-3-yl)oxy]pentyl}oxy)pyridine-2-carboximidamide]	–
5.2	620	N=C(N)c1cccc(OCCCCCOc2ccc(C(=N)N)nc2)c1 [Compound 11, 5-(5-(3-carbamimidoylphenoxy)pentyloxy)picolinimidamide]	–
7.5	1580	N=C(N)c1ccc(OCCCCCOc2ccnc(C(=N)N)c2)cn1 [Compound 12, 4-((5-((6-carbamimidoylpyridin-3-yl)oxy)pentyl)oxy)picolinimidamide]	–
5.1	–	N=C(N)c1cc(OCCCCCOc2ccnc(C(=N)N)c2)ccn1 [Compound 21]	–
–	804	N=C(N)c1cnc(OCCCCCOc2cnc(C(=N)N)cn2)cn1 [Compound 7, 5,5′-(pentane-1,5-diylbis(oxy))bis(pyrazine-2-carboximidamide)]	immune cell-mediated A549 cell apoptosis (Caspase-3/7+) ([2]; 0.3, 1 and 3 μM, three donors, 96 hours): enhancement of immune cell-mediated A549 cell apoptosis in 2 of 3 donors in a dose dependent manner; effect compared with positive control (IL-2) ([2]; highest concentration tested (3 μM)): comparable effect to the positive control (IL-2)
15.3	1100	N=C(N)c1ccc(O[C@H]2CC[C@@H](Oc3ccc(C(=N)N)nc3)CC2)cc1 [Compound 14, 5-(((1s,4s)-4-(4-carbamimidoylphenoxy)cyclohexyl)oxy)picolinimidamide]	–
–	–	N=C(N)c1ccc(OCCCCCOc2cnc(C(=N)N)cn2)cc1 [Compound 4, 5-((5-(4-carbamimidoylphenoxy)pentyl)oxy)pyrazine-2-carboximidamide]	IC50 (HEP3B2.7-1): 1910 nM; IC50 (SK-HEP-1): 5950 nM
–	22200	N=C(N)c1ccc(CCCCCCCc2ccc(C(=N)N)cn2)nc1 [Compound 10, 6,6′-(heptane-1,7-diyl)dinicotinimidamide]	–
3.2	490	N=C(N)c1cccc(OCCCCCOc2ccnc(C(=N)N)c2)c1 [Compound 15, 4-(5-(3-carbamimidoylphenoxy)pentyloxy)picolinimidamide]	–

Compound	microsomal CLint (Human microsomal CL rate) [µL/min/mg]	IC50 (NCI-H69) [nM]	other results
N=C(N)c1ccc(OCCCCOc2ccc(C(=N)N)nc2)cc1 [Compound 5, 5-(4-(4-carbamimidoylphenoxy)butoxy)picolinimidamide]	3.9	876	IC50 (NCI-H209): 2.78 µM; IC50 (HEP3B2.7-1): 207 nM; IC50 (SK-HEP-1): 730 nM; exposure to the liver vs pentamidine (20 mpk) ([1]; Compound 1 20 mpk, Compound 5 10 mpk): greater exposure to the liver than pentamidine; half-life relative to Compound 1 ([1]; liver): approximately 3 fold; half-life vs pentamidine ([1]; liver): higher half-life than pentamidine; tissue exposure ([1]; liver, small intestine, ileum): increased exposure in the liver as well as small intestine and ileum; exposure to the plasma ([1]; plasma vs other tissues): low in comparison to other tissues
